Test results as given in the supplement of paper PMC11061612.

Experiments:
Experiment in all cases: combination Emax (second highest fraction inhibited in the dose matrix, 72 h); higher = more inhibition; extreme values may be limits of the assay
[1] = system: MOLT-13 (T-Lymphoblastic Leukemia)
How it was run: (§1)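 Bliss excess equals the observed combination effect minus the expected value EA + EB − EA·EB, where EA and EB are the effects of each agent alone. Combination Emax is the second-highest inhibition within the matrix. Inhibition was scaled from CellTiter-Glo 2.0 luminescence, with 0 set by vehicle wells and 1 by blank wells, after 72 hours of two-drug dosing of cells plated in 1536-well plates.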

WM35 (Melanoma) = system: WM35 (Melanoma)
How it was run: as §1

[2] = system: NCI-H596 (Other Solid Carcinomas)
How it was run: as §1

[3] = system: PA-TU-8988T (Pancreatic Carcinoma)
How it was run: as §1

[4] = system: MDA-MB-415 (Breast Carcinoma)
How it was run: as §1

[5] = system: SKG-IIIa (Cervical Carcinoma)
How it was run: as §1

[6] = system: NCI-H1876 (Small Cell Lung Carcinoma)
How it was run: as §1

[7] = system: RCC-JW (Kidney Carcinoma)
How it was run: as §1

[8] = system: Raji (Burkitt's Lymphoma)
How it was run: as §1

[9] = system: SNU-423 (Hepatocellular Carcinoma)
How it was run: as §1

[10] = system: NCI-H1963 (Small Cell Lung Carcinoma)
How it was run: as §1

[11] = system: MONO-MAC-6 (Acute Myeloid Leukemia)
How it was run: as §1

[12] = system: CL-11 (Colorectal Carcinoma)
How it was run: as §1

[13] = system: SNU-407 (Colorectal Carcinoma)
How it was run: as §1

NB1 (Neuroblastoma) = system: NB1 (Neuroblastoma)
How it was run: as §1

[14] = system: TUR (Acute Myeloid Leukemia)
How it was run: as §1

[15] = system: T84 (Colorectal Carcinoma)
How it was run: as §1

[16] = system: SUP-M2 (T-Cell Non-Hodgkin's Lymphoma)
How it was run: as §1

[17] = system: P32-ISH (Burkitt's Lymphoma)
How it was run: as §1

[18] = system: NMC-G1 (Low Grade Glioma)
How it was run: as §1

SMILES | combination Emax [1] | combination Emax (WM35 (Melanoma)) | combination Emax [2] | combination Emax [3] | combination Emax [4] | combination Emax [5] | combination Emax [6] | combination Emax [7] | combination Emax [8] | combination Emax [9] | combination Emax [10] | combination Emax [11] | combination Emax [12] | combination Emax [13] | combination Emax (NB1 (Neuroblastoma)) | combination Emax [14] | combination Emax [15] | combination Emax [16] | combination Emax [17] | combination Emax [18]
CN(C)CCCOc1ccc(-c2ccc3ncc4c(c3c2)n(C2CCOCC2)c(=O)n4C)cn1 [AZD0156] + C[C@@H]1COCCN1C2=NC(=NC(=C2)C3(CC3)[S@](=N)(=O)C)C4=C5C=CNC5=NC=C4 [AZD6738] (first compound max 1 µM, 7x7, partner max 10 µM) | 0.925 | 0.771 | 0.454 | 0.476 | 0.395 | 0.233 | 0.938 | 0.597 | 0.87 | 0.495 | 0.804 | 0.858 | 0.767 | 0.742 | 0.933 | 0.923 | 0.668 | 0.985 | 0.951 | 0.269
Cc1c2c(nn1C)CSCc1cc(n(C)n1)CSc1cc(c3ccccc3c1)OCCCc1c(C(=O)O)n(C)c3c-2c(Cl)ccc13 [AZD5991] + CC1(C)CCC(CN2CCN(c3ccc(C(=O)NS(=O)(=O)c4ccc(NCC5CCOCC5)c([N+](=O)[O-])c4)c(Oc4cnc5[nH]ccc5c4)c3)CC2)=C(c2ccc(Cl)cc2)C1 [Venetoclax] (first compound max 1 µM, 7x7, partner max 1 µM) | 1 | 0.243 | 0.289 | 0.151 | 0.73 | 0.251 | 0.881 | 0.23 | 0.682 | 0.144 | 0.824 | 1 | 0.137 | 0.717 | 0.535 | 0.637 | 0.142 | 0.994 | 1 | 0.157
Cc1cc2ncnn2cc1Nc1ncc2c(n1)n(C1CCOCC1)c(=O)n2C [AZD7648] + C=CCn1c(=O)c2cnc(Nc3ccc(N4CCN(C)CC4)cc3)nc2n1-c1cccc(C(C)(C)O)n1 [AZD1775] (first compound max 10 µM, partner max 1 µM) | 0.953 | 0.294 | 0.357 | 0.749 | 0.488 | 0.43 | 0.976 | 0.413 | 0.755 | 0.497 | 0.873 | 0.909 | 0.638 | 0.446 | 0.847 | 0.736 | 0.45 | 0.991 | 1 | 0.327
C=CCn1c(=O)c2cnc(Nc3ccc(N4CCN(C)CC4)cc3)nc2n1-c1cccc(C(C)(C)O)n1 [AZD1775] + O=C(c1cc(Cc2n[nH]c(=O)c3ccccc23)ccc1F)N1CCN(C(=O)C2CC2)CC1 [Olaparib] (first compound max 1 µM, partner max 10 µM) | 0.975 | 0.303 | 0.431 | 0.8 | 0.229 | 0.369 | 0.968 | 0.326 | 0.74 | 0.731 | 0.845 | 0.942 | 0.584 | 0.465 | 0.819 | 0.663 | 0.745 | 0.993 | 0.997 | 0.431
CC1(C)CCC(CN2CCN(c3ccc(C(=O)NS(=O)(=O)c4ccc(NCC5CCOCC5)c([N+](=O)[O-])c4)c(Oc4cnc5[nH]ccc5c4)c3)CC2)=C(c2ccc(Cl)cc2)C1 [Venetoclax] + C[C@@H]1COCCN1C2=NC(=NC(=C2)C3(CC3)[S@](=N)(=O)C)C4=C5C=CNC5=NC=C4 [AZD6738] (first compound max 1 µM, 7x7, partner max 10 µM) | 1 | 0.269 | 0.371 | 0.345 | 0.509 | 0.368 | 0.942 | 0.469 | 0.733 | 0.441 | 0.985 | 0.985 | 0.681 | 0.77 | 0.789 | 0.963 | 0.702 | 0.979 | 0.933 | 0.461
CN(CCO)CC[C@H](CSc1ccccc1)Nc1ccc(S(=O)(=O)NC(=O)c2ccc(N3CCC([C@@H](O)c4ccccc4-c4ccc(Cl)cc4)CC3)cc2)cc1S(=O)(=O)C(F)(F)F [AZD4320] + C[C@@H](Nc1cc(F)cc(F)c1)c1cc(C(=O)N(C)C)cc2c(=O)cc(N3CCOCC3)oc12 [AZD8186] (first compound max 1 µM, 7x7, partner max 3 µM) | 0.996 | 0.561 | 0.381 | 0.437 | 0.909 | 0.471 | 1 | 0.817 | 0.354 | 0.547 | 1 | 0.714 | 0.378 | 0.311 | 0.651 | 0.19 | 0.249 | 0.944 | 0.782 | 0.814
CC1(C)CCC(CN2CCN(c3ccc(C(=O)NS(=O)(=O)c4ccc(NCC5CCOCC5)c([N+](=O)[O-])c4)c(Oc4cnc5[nH]ccc5c4)c3)CC2)=C(c2ccc(Cl)cc2)C1 [Venetoclax] + Cc1cc2ncnn2cc1Nc1ncc2c(n1)n(C1CCOCC1)c(=O)n2C [AZD7648] (first compound max 1 µM, 7x7, partner max 10 µM) | 0.785 | 0.204 | 0.226 | 0.238 | 0.342 | 0.24 | 0.274 | 0.151 | 0.152 | 0.292 | 0.744 | 0.436 | 0.157 | 0.373 | 0.561 | 0.102 | 0.0827 | 0.283 | 0.0629 | 0.192
CN(CCO)CC[C@H](CSc1ccccc1)Nc1ccc(S(=O)(=O)NC(=O)c2ccc(N3CCC([C@@H](O)c4ccccc4-c4ccc(Cl)cc4)CC3)cc2)cc1S(=O)(=O)C(F)(F)F [AZD4320] + C1CN(CCC1(C(=O)N[C@@H](CCO)C2=CC=C(C=C2)Cl)N)C3=NC=NC4=C3C=CN4 [Capivasertib] (first compound max 1 µM, 7x7, partner max 3 µM) | 0.913 | 0.215 | 0.42 | 0.22 | 0.968 | 0.131 | 0.955 | 0.615 | 0.177 | 0.406 | 1 | 0.597 | 0.147 | 0.362 | 0.689 | 0.559 | 0.136 | 0.365 | 0.318 | 0.507
CC1(C)CCC(CN2CCN(c3ccc(C(=O)NS(=O)(=O)c4ccc(NCC5CCOCC5)c([N+](=O)[O-])c4)c(Oc4cnc5[nH]ccc5c4)c3)CC2)=C(c2ccc(Cl)cc2)C1 [Venetoclax] + C1CN(CCC1(C(=O)N[C@@H](CCO)C2=CC=C(C=C2)Cl)N)C3=NC=NC4=C3C=CN4 [Capivasertib] (first compound max 1 µM, 7x7, partner max 3 µM) | 0.566 | 0.178 | 0.334 | 0.219 | 0.663 | 0.224 | 0.259 | 0.157 | 0.132 | 0.393 | 0.775 | 0.704 | 0.162 | 0.388 | 0.755 | 0.599 | 0.168 | 0.248 | 0.306 | 0.111
CN(CCO)CC[C@H](CSc1ccccc1)Nc1ccc(S(=O)(=O)NC(=O)c2ccc(N3CCC([C@@H](O)c4ccccc4-c4ccc(Cl)cc4)CC3)cc2)cc1S(=O)(=O)C(F)(F)F [AZD4320] + CN(C)CCCOc1ccc(-c2ccc3ncc4c(c3c2)n(C2CCOCC2)c(=O)n4C)cn1 [AZD0156] (first compound max 1 µM, 7x7, partner max 1 µM) | 0.949 | 0.152 | 0.289 | 0.183 | 0.636 | 0.109 | 0.982 | 0.62 | 0.136 | 0.515 | 1 | 0.422 | 0.144 | 0.0943 | 0.173 | 0.118 | 0.108 | 0.388 | 0.17 | 0.756
COc1cccc2c1C(=O)c1c(O)c3c(c(O)c1C2=O)C[C@@](O)(C(=O)CO)C[C@@H]3O[C@H]1C[C@H](N)[C@H](O)[C@H](C)O1 [Doxorubicin] + Cc1cc2ncnn2cc1Nc1ncc2c(n1)n(C1CCOCC1)c(=O)n2C [AZD7648] (first compound max 1 µM, 7x7, partner max 10 µM) | 0.986 | 0.564 | 0.295 | 0.791 | 0.568 | 0.512 | 0.978 | 0.75 | 0.96 | 0.713 | 0.799 | 0.999 | 0.602 | 0.406 | 0.89 | 0.935 | 0.163 | 1 | 0.992 | 0.405
